Source: US20260250290A1 (BRISTOL-MYERS SQUIBB COMPANY, priority 2023, published 2026)
Structures can show the parent of a compound that is named as a salt.

Biological target: T1, full length SGK1 (Homo sapiens, UniProt O00141)
T1 construct: 125 μM full length SGK1 (Life Technologies Part #PR7358A); purchased Life Technologies PR7358A
T1 sequence (O00141 1-431): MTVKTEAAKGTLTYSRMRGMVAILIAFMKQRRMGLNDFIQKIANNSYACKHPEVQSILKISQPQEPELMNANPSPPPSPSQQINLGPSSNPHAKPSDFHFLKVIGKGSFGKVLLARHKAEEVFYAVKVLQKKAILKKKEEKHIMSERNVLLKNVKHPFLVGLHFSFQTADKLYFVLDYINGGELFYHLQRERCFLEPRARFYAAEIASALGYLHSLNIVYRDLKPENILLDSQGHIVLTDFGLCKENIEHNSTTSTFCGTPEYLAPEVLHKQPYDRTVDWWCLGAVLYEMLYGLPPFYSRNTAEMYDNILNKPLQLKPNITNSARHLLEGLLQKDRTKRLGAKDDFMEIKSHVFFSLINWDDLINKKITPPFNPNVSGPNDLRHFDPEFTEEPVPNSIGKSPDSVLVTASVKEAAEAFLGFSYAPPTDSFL
Assay: SGK1 inhibition Assay A (Caliper LabChip electrophoretic separation of fluorescent peptide substrate and phosphorylated product)
Assay type: biochemical
Conditions: Assay A; 20 μM ATP, 40 min incubation; read-out: SGK1 IC50

IC50 [nM]	Compound
67	COc1cnccc1C(=O)N[C@@H]1CCCN(c2cc(C3=CCN(C(C)=O)C3)n3ncnc(N)c23)C1 [Example 258, (R)—N-(1-(7-(1-acetyl-2,5-dihydro-1H-pyrrol-3-yl)-4-aminopyrrolo[2,1-f][1,2,4]triazin-5-yl)piperidin-3-yl)-3-methoxyisonicotinamide]
18	CC(=O)N1CC=C(c2cc(N3CCC[C@@H](NC(=O)c4ccc(CO)cc4)C3)c3c(N)ncnn23)C1 [Example 457, (R)-N-(1-(7-(1-acetyl-2,5-dihydro-1H-pyrrol-3-yl)-4-aminopyrrolo[2,1-f][1,2,4]triazin-5-yl)piperidin-3-yl)-4-(hydroxymethyl)benzamide]
7	N#Cc1ccc(-c2cc(N3CCC[C@@H](NC(=O)c4sc(Cl)cc4OCC4CNC4)C3)c3c(N)ncnn23)cn1 [Example 635]
324	CS(=O)(=O)c1ccc(-c2cc(N3CCC[C@@H](NC(=O)C4CCCCC4)C3)c3c(N)ncnn23)cc1 [Example 16, (R)-N-(1-(4-amino-7-(4-(methylsulfonyl)phenyl)pyrrolo[2,1-f][1,2,4]triazin-5-yl)piperidin-3-yl) cyclohexanecarboxamide]
38	CC(=O)N1CC=C(c2cc(N3CCC[C@@H](NC(=O)c4sc(C)cc4N4CCOCC4)C3)c3c(N)ncnn23)C1 [Example 268, (R)—N-(1-(7-(1-acetyl-2,5-dihydro-1H-pyrrol-3-yl)-4-aminopyrrolo[2,1-f][1,2,4]triazin-5-yl)piperidin-3-yl)-5-methyl-3-morpholinothiophene-2-carboxamide]
104	CC(=O)N1CC=C(c2cc(N3CCC[C@@H](NC(=O)c4cc5c(s4)CCNC5)C3)c3c(N)ncnn23)C1 [Example 815, (R)—N-(1-(7-(1-acetyl-2,5-dihydro-1H-pyrrol-3-yl)-4-aminopyrrolo[2,1-f][1,2,4]triazin-5-yl)piperidin-3-yl)-4,5,6,7-tetrahydrothieno[3,2-c]pyridine-2-carboxamide TFA salt]
1	CN(C)CCOc1cc(Cl)sc1C(=O)N[C@@H]1CCCN(c2cc(-c3ccnc(F)c3)n3ncnc(N)c23)C1 [Example 149, (R)-N-(1-(4-amino-7-(2-fluoropyridin-4-yl)pyrrolo[2,1-f][1,2,4]triazin-5-yl)piperidin-3-yl)-5-chloro-3-(2-(dimethylamino)ethoxy) thiophene-2-carboxamide, TFA]
2	CN(C)CCOc1cc(Cl)sc1C(=O)N[C@@H]1CCCN(c2cc(-c3ccnc(C#N)c3)n3ncnc(N)c23)C1 [Example 280, (R)-N-(1-(4-amino-7-(2-cyanopyridin-4-yl)pyrrolo[2,1-f][1,2,4]triazin-5-yl)piperidin-3-yl)-5-chloro-3-(2-(dimethylamino)ethoxy) thiophene-2-carboxamide]
3	CC(=O)N1CC=C(c2cc(N3CCCC(NC(=O)c4sc(Cl)cc4OC4CCNC(C)C4)C3)c3c(N)ncnn23)C1 (single isomer, unassigned) [Example 622]
3	Nc1ncnn2c(-c3ccn[nH]3)cc(N3CCC[C@@H](NC(=O)c4ccc(Cl)s4)C3)c12 [Example 211, (R)-N-(1-(4-amino-7-(1H-pyrazol-5-yl)pyrrolo[2,1-f][1,2,4]triazin-5-yl)piperidin-3-yl)-5-chlorothiophene-2-carboxamide]
1	Nc1ncnn2c(C3=CCN(C(=O)c4ccon4)C3)cc(N3CCC[C@@H](NC(=O)c4ccc(Cl)s4)C3)c12 [Example 882, (R)-N-(1-(4-amino-7-(1-(isoxazole-3-carbonyl)-2,5-dihydro-1H-pyrrol-3-yl)pyrrolo[2,1-f][1,2,4]triazin-5-y1)piperidin-3-y1)-5-chlorothiophene-2-carboxamide]
3	COC(=O)N1CC=C(c2cc(N3CCC[C@@H](NC(=O)c4sc(Cl)cc4OC4CCN(C(C)=O)CC4)C3)c3c(N)ncnn23)C1 [Example 565, methyl (R)-3-(5-(3-(3-((1-acetylpiperidin-4-yl)oxy)-5-chlorothiophene-2-carboxamido)piperidin-1-yl)-4-aminopyrrolo[2,1-f][1,2,4]triazin-7-yl)-2,5-dihydro-1H-pyrrole-1-carboxylate]
19	Cc1ccc(C(=O)N[C@@H]2CCCN(c3cc(-c4ccc(S(C)(=O)=O)cc4)n4ncnc(N)c34)C2)cc1C [Example 84, (R)-N-(1-(4-amino-7-(4-(methylsulfonyl)phenyl)pyrrolo[2,1-f][1,2,4]triazin-5-yl)piperidin-3-yl)-3,4-dimethylbenzamide, TFA]
49	CC(=O)NCCOc1cc(C(F)F)sc1C(=O)N[C@@H]1CCCN(c2cc(-c3cncnc3)n3ncnc(N)c23)C1 [Example 424, (R)-3-(2-acetamidocthoxy)-N-(1-(4-amino-7-(pyrimidin-5-yl)pyrrolo[2,1-f][1,2,4]triazin-5-yl)piperidin-3-yl)-5-(difluoromethyl)thiophene-2-carboxamide]
22	CCN(CC)CCOc1cc(C(F)F)sc1C(=O)N[C@@H]1CCCN(c2cc(C3=CCN(C(=O)OC)C3)n3ncnc(N)c23)C1 [Example 408, methyl (R)-3-(4-amino-5-(3-(3-(2-(diethylamino)ethoxy)-5-(difluoromethyl)thiophene-2-carboxamido)piperidin-1-yl)pyrrolo[2,1-f][1,2,4]triazin-7-yl)-2,5-dihydro-1H-pyrrole-1-carboxylate]
10	CS(=O)(=O)c1ccc(-c2cc(N3CCC[C@@H](NC(=O)c4ccc(C5CC5)s4)C3)c3c(N)ncnn23)cc1 [Example 92, (R)-N-(1-(4-amino-7-(4-(methylsulfonyl)phenyl)pyrrolo[2,1-f][1,2,4]triazin-5-yl)piperidin-3-yl)-5-cyclopropylthiophene-2-carboxamide, TFA]
274	CS(=O)(=O)c1ccc(-c2cc(N3CCC[C@@H](NC(=O)c4ccccc4Cl)C3)c3c(N)ncnn23)cc1 [Example 19, (R)-N-(1-(4-amino-7-(4-(methylsulfonyl)phenyl)pyrrolo[2,1-f][1,2,4]triazin-5-yl)piperidin-3-yl)-2-chlorobenzamide]
22	CC(=O)N1CC=C(c2cc(N3CCC[C@@H](NC(=O)c4sc5ccncc5c4OCCN(C)C)C3)c3c(N)ncnn23)C1 [Example 669, (R)-N-(1-(7-(1-acetyl-2,5-dihydro-1H-pyrrol-3-yl)-4-aminopyrrolo[2,1-f][1,2,4]triazin-5-yl)piperidin-3-yl)-3-(2-(dimethylamino)ethoxy)thieno [3,2-c]pyridine-2-carboxamide]
107	Cc1ccc(C(=O)N[C@@H]2CCCN(c3c(Cl)c(-c4ccc(S(C)(=O)=O)cc4)n4ncnc(N)c34)C2)s1 [Example 195, N-[(3R)-1-[4-amino-6-chloro-7-(4-methanesulfonylphenyl)pyrrolo[2,1-f][1,2,4]triazin-5-yl]piperidin-3-yl]-5-methylthiophene-2-carboxamide]
344	COc1cc(C#N)ccc1C(=O)N[C@@H]1CCCN(c2cc(C3=CCN(C(C)=O)C3)n3ncnc(N)c23)C1 [Example 496, (R)-N-(1-(7-(1-acetyl-2,5-dihydro-1H-pyrrol-3-yl)-4-aminopyrrolo[2,1-f][1,2,4]triazin-5-yl)piperidin-3-yl)-4-cyano-2-methoxybenzamide]
75	CC(=O)N1CC=C(c2cc(N3CCC[C@@H](NC(=O)c4ccccc4N(C)C)C3)c3c(N)ncnn23)C1 [Example 470, (R)-N-(1-(7-(1-acetyl-2,5-dihydro-1H-pyrrol-3-yl)-4-aminopyrrolo[2,1-f][1,2,4]triazin-5-yl)piperidin-3-yl)-2-(dimethylamino)benzamide]
4	Nc1ncnn2c(-c3ccnc(C(F)F)c3)cc(N3CCC[C@@H](NC(=O)c4ccc(-c5ccnc(C(F)F)c5)s4)C3)c12 [Example 542, (R)-N-(1-(4-amino-7-(2-(difluoromethyl)pyridin-4-yl)pyrrolo[2,1-f][1,2,4]triazin-5-yl)piperidin-3-yl)-5-(2-(difluoromethyl)pyridin-4-yl)thiophene-2-carboxamide]
21	Cc1cc(C(=O)N[C@@H]2CCCN(c3cc(-c4ccc(S(C)(=O)=O)cc4)n4ncnc(N)c34)C2)cc(C)n1 [Example 35, (R)-N-(1-(4-amino-7-(4-(methylsulfonyl)phenyl)pyrrolo[2,1-f][1,2,4]triazin-5-yl)piperidin-3-yl)-2,6-dimethylisonicotinamide]
2	Nc1ncnn2c(-c3ccc(=O)n(C(F)F)c3)cc(N3CCC[C@@H](NC(=O)c4ccc(Cl)s4)C3)c12 [Example 537, (R)-N-(1-(4-amino-7-(1-(difluoromethyl)-6-oxo-1,6-dihydropyridin-3-yl)pyrrolo[2,1-f][1,2,4]triazin-5-yl)piperidin-3-yl)-5-chlorothiophene-2-carboxamide]
2	Cc1ccc(C(=O)N[C@@H]2CCCN(c3cc(-c4ccncc4)n4ncnc(N)c34)C2)s1 [Example 128, N-[(3R)-1-[4-amino-7-(pyridin-4-yl)pyrrolo[2,1-f][1,2,4]triazin-5-yl]piperidin-3-yl]-5-methylthiophene-2-carboxamide]

Compound	IC50 [nM]
CS(=O)(=O)N1CC=C(c2cc(N3CCC[C@@H](NC(=O)c4ccnc(F)c4)C3)c3c(N)ncnn23)C1 [Example 117, (R)—N-(1-(4-amino-7-(1-(methylsulfonyl)-2,5-dihydro-1H-pyrrol-3-yl)pyrrolo[2,1-f][1,2,4]triazin-5-yl)piperidin-3-yl)-2-fluoroisonicotinamide, TFA]	6
